12 molecules from patent US7691382B2, “Antiviral polypeptides comprising tandem repeats of APOE 141-149 and variants thereof” (priority 2003, dated 2010) can be followed below.

Peptide text beside a SMILES is read from it.

One experiment relates to HSV1. The experiment is classed as cell-based, Human herpes simplex virus type 1.
Conditions: not given
Here is the method:
African Green Monkey Kidney (Vero) cells were maintained in Eagle's minimum essential medium with Earle's salt (EMEM) and supplemented with 10% foetal calf serum (heat-inactivated), 4 mM L-glutamine, and 1% (v/v) nonessential amino acids, plus penicillin and streptomycin (100 IU/mg and […], respectively) (maintenance medium referred to as 10% EMEM). The cells were incubated at 37° C. in a humidified atmosphere of air with 5% CO2.
On harvesting, monolayers were washed in phosphate-buffered saline (PBS), and dislodged by incubating with trypsin in PBS for 30 min, before inactivating trypsin by addition of an equal volume of 10% EMEM and centrifuging at 500 g (5 min, 4° C.). Cell pellets were resuspended in 10% EMEM, prior to cell counting and seeding of 24-well plates. For antiviral assays, medium containing only 0.5% FCS was used (referred to as 0.5% EMEM).
Three separate passages of HSV1 virus were prepared by infecting Vero cells, and preparing semi-pure suspensions of virus from tissue culture supernatant and cell lysates, before freezing aliquots of virus at −85° C. Viral infectivity was assessed by carrying out plaque assays on serial dilutions of thawed aliquots (expressed in pfu/ml).
Peptides were obtained in lyophilised form from a commercial supplier (AltaBioscience, University of Birmingham or Advanced Biomedical), and were produced at 5 micromole scale. N-terminals were protected by addition of an acetyl group, and the C-terminals were protected by addition of an amide group.
Small quantities of peptide were weighed in sterile Eppendorf tubes, before addition of sufficient 0.5% EMEM to produce a 1.5 mM stock solution, which was frozen at −20° C. in aliquots.
Vero cells were seeded at 125,000 cells per well in 10% EMEM, and were incubated overnight resulting in confluent monolayers. […] Virus stocks (p3) were thawed, and diluted in 0.5% EMEM such that there were around 100 pfu in 100 μl. Each 24-well plate was inoculated separately. Firstly 100 μl of virus stock was added to the peptide or control medium arranged on a 96-well plate. This was incubated at 37° C. for ten minutes before inoculation. Medium was removed from four wells of a 24-well plate containing confluent Vero, and the 200 μl inoculum added to the appropriate well. Once all wells were treated, the 24-well plate was incubated for a further 60-80 minutes. Finally the peptide-containing inoculum was removed, and 1 ml of 1% EMEM containing 1% carboxymethylcellulose was added to each well. Plates were incubated for a further 22 hours or in some experiments 40 hours, before removal of overlay, and addition of 10% formaldehyde in PBS. After a further one hour incubation, fixative was removed, monolayers washed several times with tap water, and stained with carbol fuchsin solubilised in water. After 30 minutes stain was removed, and plates washed several times with tap water, before being air dried. Plaques were counted using an Olympus IX70 Inverting Microscope, and antiviral effect expressed as a percentage of the control value for each peptide concentration. The IC50 was calculated from plots of inhibitory effect against peptide concentration.
Broadly, the IC50 is the point on the concentration scale where inhibition reaches its midpoint. Low readings indicate inhibition by little substance, high ones a need for much substance. `CC(=O)N[C@@H](CC(C)C)C(=O)N[C@@H](CC(C)C)C(=O)N[C@@H](CCCNC(=N)N)C(=O)N[C@@H](CCCCN)C(=O)N[C@@H](CCCNC(=N)N)C(=O)N[C@@H](CC(C)C)C(=O)N[C@@H](CCCCN)C(=O)N[C@@H](CCCNC(=N)N)C(=O)N[C@@H](CC(C)C)C(=O)N[C@@H](CC(C)C)C(=O)N[C@@H](CC(C)C)C(=O)N[C@@H](CCCNC(=N)N)C(=O)N[C@@H](CCCCN)C(=O)N[C@@H](CCCNC(=N)N)C(=O)N[C@@H](CC(C)C)C(=O)N[C@@H](CCCCN)C(=O)N[C@@H](CCCNC(=N)N)C(=O)N[C@@H](CC(C)C)C(N)=O` [MU 24] (Ac-LLRKRLKRLLLRKRLKRL-NH2) displayed an IC50 of 40 µM.

Take `CC(=O)N[C@@H](CC(C)C)C(=O)N[C@@H](CCCNC(=N)N)C(=O)N[C@@H](CCCNC(=N)N)C(=O)N[C@@H](CC(C)C)C(=O)N[C@@H](CCCNC(=N)N)C(=O)N[C@@H](CCCNC(=N)N)C(=O)N[C@@H](CCCNC(=N)N)C(=O)N[C@@H](CC(C)C)C(=O)N[C@@H](CC(C)C)C(=O)N[C@@H](CC(C)C)C(=O)N[C@@H](CCCNC(=N)N)C(=O)N[C@@H](CCCNC(=N)N)C(=O)N[C@@H](CC(C)C)C(=O)N[C@@H](CCCNC(=N)N)C(=O)N[C@@H](CCCNC(=N)N)C(=O)N[C@@H](CCCNC(=N)N)C(=O)N[C@@H](CC(C)C)C(=O)N[C@@H](CC(C)C)C(N)=O` [MU 38] (Ac-LRRLRRRLLLRRLRRRLL-NH2): the IC50 was more than 30 µM.

`CC(=O)N[C@@H](CC(C)C)C(=O)N[C@@H](CCCCN)C(=O)N[C@@H](CCCCN)C(=O)N[C@@H](CC(C)C)C(=O)N[C@@H](CCCCN)C(=O)N[C@@H](CCCCN)C(=O)N[C@@H](CCCCN)C(=O)N[C@@H](CC(C)C)C(=O)N[C@@H](CC(C)C)C(=O)N[C@@H](CC(C)C)C(=O)N[C@@H](CCCCN)C(=O)N[C@@H](CCCCN)C(=O)N[C@@H](CC(C)C)C(=O)N[C@@H](CCCCN)C(=O)N[C@@H](CCCCN)C(=O)N[C@@H](CCCCN)C(=O)N[C@@H](CC(C)C)C(=O)N[C@@H](CC(C)C)C(N)=O` [MU 39] (Ac-LKKLKKKLLLKKLKKKLL-NH2) showed an IC50 of 30 µM. Turning to `CC(=O)N[C@@H](CC(C)C)C(=O)N[C@@H](CCCNC(=N)N)C(=O)N[C@@H](CCCCN)C(=O)N[C@@H](CC(C)C)C(=O)N1CCC[C@H]1C(=O)N[C@@H](CCCCN)C(=O)N[C@@H](CCCNC(=N)N)C(=O)N[C@@H](CC(C)C)C(=O)N[C@@H](CC(C)C)C(=O)N[C@@H](CC(C)C)C(=O)N[C@@H](CCCNC(=N)N)C(=O)N[C@@H](CCCCN)C(=O)N[C@@H](CC(C)C)C(=O)N1CCC[C@H]1C(=O)N[C@@H](CCCCN)C(=O)N[C@@H](CCCNC(=N)N)C(=O)N[C@@H](CC(C)C)C(=O)N[C@@H](CC(C)C)C(N)=O` [MU 44] (Ac-LRKLPKRLLLRKLPKRLL-NH2), the IC50 is more than 30 µM. The molecule `CC(=O)N[C@@H](Cc1c[nH]c2ccccc12)C(=O)N[C@@H](CCCNC(=N)N)C(=O)N[C@@H](CCCCN)C(=O)N[C@@H](Cc1c[nH]c2ccccc12)C(=O)N[C@@H](CCCNC(=N)N)C(=O)N[C@@H](CCCCN)C(=O)N[C@@H](CCCNC(=N)N)C(=O)N[C@@H](Cc1c[nH]c2ccccc12)C(=O)N[C@@H](Cc1c[nH]c2ccccc12)C(=O)N[C@@H](CCCNC(=N)N)C(=O)N[C@@H](CCCCN)C(=O)N[C@@H](Cc1c[nH]c2ccccc12)C(=O)N[C@@H](CCCNC(=N)N)C(=O)N[C@@H](CCCCN)C(=O)N[C@@H](CCCNC(=N)N)C(=O)N[C@@H](Cc1c[nH]c2ccccc12)C(=O)N[C@@H](Cc1c[nH]c2ccccc12)C(N)=O` [MU 58] (Ac-WRKWRKRWWRKWRKRWW-NH2) returned an IC50 of 4.25 µM. In the case of `CC(=O)N[C@@H](Cc1c[nH]c2ccccc12)C(=O)N[C@@H](CCCNC(=N)N)C(=O)N[C@@H](CCCCN)C(=O)N[C@@H](Cc1c[nH]c2ccccc12)C(=O)N[C@@H](CCCNC(=N)N)C(=O)N[C@@H](CCCCN)C(=O)N[C@@H](CCCNC(=N)N)C(=O)N[C@@H](Cc1c[nH]c2ccccc12)C(=O)N[C@@H](Cc1c[nH]c2ccccc12)C(=O)N[C@@H](Cc1ccccc1)C(=O)N[C@@H](CCCNC(=N)N)C(=O)N[C@@H](CCCCN)C(=O)N[C@@H](Cc1c[nH]c2ccccc12)C(=O)N[C@@H](CCCNC(=N)N)C(=O)N[C@@H](CCCCN)C(=O)N[C@@H](CCCNC(=N)N)C(=O)N[C@@H](Cc1c[nH]c2ccccc12)C(=O)N[C@@H](Cc1c[nH]c2ccccc12)C(N)=O` [MU 60] (Ac-WRKWRKRWWFRKWRKRWW-NH2), the IC50 amounted to 4 µM.

With `CC(=O)N[C@@H](Cc1c[nH]c2ccccc12)C(=O)N[C@@H](CCCNC(=N)N)C(=O)N[C@@H](CCCCN)C(=O)N[C@@H](Cc1c[nH]c2ccccc12)C(=O)N[C@@H](CCCNC(=N)N)C(=O)N[C@@H](CCCCN)C(=O)N[C@@H](CCCNC(=N)N)C(=O)N[C@@H](Cc1c[nH]c2ccccc12)C(=O)N[C@@H](Cc1ccccc1)C(=O)N[C@@H](Cc1ccccc1)C(=O)N[C@@H](CCCNC(=N)N)C(=O)N[C@@H](CCCCN)C(=O)N[C@@H](Cc1c[nH]c2ccccc12)C(=O)N[C@@H](CCCNC(=N)N)C(=O)N[C@@H](CCCCN)C(=O)N[C@@H](CCCNC(=N)N)C(=O)N[C@@H](Cc1ccccc1)C(=O)N[C@@H](Cc1ccccc1)C(N)=O` [MU 61] (Ac-WRKWRKRWFFRKWRKRFF-NH2), the midpoint of inhibition, the IC50, lay at 4.75 µM. Still for that read-out and setting: the result for `CC(=O)N[C@@H](Cc1c[nH]c2ccccc12)C(=O)N[C@@H](CCCNC(=N)N)C(=O)N[C@@H](CCCCN)C(=O)N[C@@H](CC(C)C)C(=O)N[C@@H](CCCNC(=N)N)C(=O)N[C@@H](CCCCN)C(=O)N[C@@H](CCCNC(=N)N)C(=O)N[C@@H](CC(C)C)C(=O)N[C@@H](CC(C)C)C(=O)N[C@@H](CC(C)C)C(=O)N[C@@H](CCCNC(=N)N)C(=O)N[C@@H](CCCCN)C(=O)N[C@@H](CC(C)C)C(=O)N[C@@H](CCCNC(=N)N)C(=O)N[C@@H](CCCCN)C(=O)N[C@@H](CCCNC(=N)N)C(=O)N[C@@H](CC(C)C)C(=O)N[C@@H](CC(C)C)C(N)=O` [MU 115] (Ac-WRKLRKRLLLRKLRKRLL-NH2) reads 17.5 µM; that for `CC(=O)N[C@@H](Cc1c[nH]c2ccccc12)C(=O)N[C@@H](CCCNC(=N)N)C(=O)N[C@@H](CCCCN)C(=O)N[C@@H](Cc1c[nH]c2ccccc12)C(=O)N[C@@H](CCCNC(=N)N)C(=O)N[C@@H](CCCCN)C(=O)N[C@@H](Cc1ccccc1)C(=O)N[C@@H](Cc1ccccc1)C(=O)N[C@@H](Cc1ccccc1)C(=O)N[C@@H](CCCNC(=N)N)C(=O)N[C@@H](CCCCN)C(=O)N[C@@H](Cc1c[nH]c2ccccc12)C(=O)N[C@@H](CCCNC(=N)N)C(=O)N[C@@H](CCCCN)C(=O)N[C@@H](CCCNC(=N)N)C(=O)N[C@@H](Cc1c[nH]c2ccccc12)C(=O)N[C@@H](Cc1c[nH]c2ccccc12)C(N)=O` [MU 116] (Ac-WRKWRKFFFRKWRKRWW-NH2), 3.3 µM; that for `CC(=O)N[C@@H](Cc1c[nH]c2ccccc12)C(=O)N[C@@H](CCCNC(=N)N)C(=O)N[C@@H](CCCCN)C(=O)N[C@@H](Cc1c[nH]c2ccccc12)C(=O)N[C@@H](CCCNC(=N)N)C(=O)N[C@@H](CCCCN)C(=O)N[C@@H](CCCNC(=N)N)C(=O)N[C@@H](Cc1c[nH]c2ccccc12)C(=O)N[C@@H](Cc1c[nH]c2ccccc12)C(=O)N[C@@H](Cc1ccccc1)C(=O)N[C@@H](CCCNC(=N)N)C(=O)N[C@@H](CCCCN)C(=O)N[C@@H](Cc1ccccc1)C(=O)N[C@@H](CCCNC(=N)N)C(=O)N[C@@H](CCCCN)C(=O)N[C@@H](CCCNC(=N)N)C(=O)N[C@@H](Cc1ccccc1)C(=O)N[C@@H](Cc1ccccc1)C(N)=O` [MU 117] (Ac-WRKWRKRWWFRKFRKRFF-NH2), 3.3 µM.

Still in this experiment, the particulars now being: Examples 2 and 3.
As for ARKARKRAAARKARKRAA [GIN 39], the “efficacy for reducing HSV1 infectivity (in words)” value was “abolished antiviral activity”.

RLLLRKLRKRLL [GIN 3]: the “efficacy for reducing HSV1 infectivity (in words)” value is recorded as “no, or poor, efficacy”.

The same experiment, now with this note: HSV1, Vero cells, Table 4 (Example 2).
For RLLLRKLRKRLL [GIN 3], the “Apparent IC50” value was “No”.
